Assay results taken from patent US20200095241A1, “SUBSTITUTED 1,2,4-THIADIAZOLYLPYRROLONES AND 1,2,4-THIADIAZOLYLHYDANTOINS AND SALTS THEREOF AND USE THEREOF AS HERBICIDES” (Bayer CropScience Aktiengesellschaft, priority 2016, published 2020).

Columns and labels:
[1] = molecular target: T1, photosystem II (PS II) (Spinacia oleracea, UniProt P69560); experiment: Measurement of the PS II activity in thylakoid membranes (DCPIP reduction); assay type: biochemical; conditions: 100 μM test compound, spinach thylakoid membranes, DCPIP 120 μM, 10 min at 22° C. with exposure to light; for inhibition at 100 µM (stock): read-out: Effect (inhibition of PS II activity)
T1 construct: the chloroplasts were osmotically ruptured and the thylakoid membranes were then obtained by centrifugation; from tissue; host or cells: fresh spinach leaves; thylakoid membranes isolated from chloroplasts
Experimental: Cooled fresh spinach leaves were comminuted and homogenized in 50 mM phosphate buffer, pH 6.8. 10 mM KCl, 0.34 M sucrose (sucrose buffer) (blender, 1 g of plant material/ml). The homogenate was subsequently filtered through 4 layers of Miracloth and the chloroplasts were isolated by centrifugation, i.e. 10 min of centrifugation at 4400×g (4° C.). The sediment was suspended in 25 ml of sucrose buffer and re-centrifuged for 10 min at 4400×g (4° C.). The sediment was then suspended in 40 ml of 50 mM phosphate buffer, pH 6.8, 10 mM KCl, without sucrose. In this step, the chloroplasts were osmotically ruptured and the thylakoid membranes were then obtained by centrifugation (10 min, 4400×g, 4° C.). The membrane sediment was finally suspended in 20 ml of 50 mM phosphate buffer, pH 6.8, 10 mM KCl. Following protein determination and activity determination, the membrane suspension was divided into aliquots and frozen in liquid nitrogen. The aliquots were stored at −80° C. Under these conditions, the photosystem II preparation was storage stable for at least three months. The activity determination of photosystem II (PS II) was then carried out using the following test principle:
The electron transfer from PS II to an artificial electron acceptor, 2,6-dichlorophenolindophenol (DCPIP), was measured with exposure to light. The concentration of the blue oxidized form of DCPIP was determined spectrophotometrically at wavelength λ=595 nm. […] The activity determination was carried out in microtiter plates (96 cavities) in a reaction volume of 200 μl. Here, 155 μl of dilute membrane suspension were initially charged in 50 mM of phosphate buffer, pH 6.8, 10 mM KCl. Depending on the activity of the PS II preparation, the dilution was adjusted such that the measurement of the decrease in absorption (λ=595 nm) was linear for at least 10 min. In each case 5 μl solution of the test compounds of a concentration of 100 μM in DMSO were added to the enzyme suspension; controls contained 5 μl DMSO; the final concentration of DMSO in the reaction batch was thus 2.5% (v/v); this concentration had no adverse effect on the enzymatic activity. On each microtiter plate, a known PS II inhibitor, for example metribuzin, was used as standard, which allowed the quality of the PS II test to be assessed. The reaction was started by addition of 40 μl DCPIP solution (600 μM in distilled water); the final concentration of DCPIP was 120 μM. Measurement of absorption was carried out over a period of 10 min at 22° C. and with exposure to light. Using metribuzin as comparative substance, the results for the efficacy of the compounds of the general formula (I) at 100 μM are stated in the table below using the following classification: ++++ (inhibition≥90%), +++ ([…]≥70%), ++ (70%>inhibition≥50%), + (50%>inhibition≥30%).

[2] = tested on: Stellaria media; experiment: Pre-emergence herbicidal action; assay type: in vivo; conditions: Stellaria media, 504 h, 1280 g/ha, after about 3 weeks, read-out: Stellaria media, herbicidal effect scored visually
Source text: Seeds of monocotyledonous and dicotyledonous weed plants and crop plants were placed in plastic or organic planting pots and covered with soil. The compounds of the invention, formulated in the form of wettable powders (WP) or as emulsion concentrates (EC), were then applied onto the surface of the covering soil as aqueous suspension or emulsion with addition of 0.5% additive at a water application rate of 600 l/ha (converted). After the treatment, the pots were placed in a greenhouse and kept under good growth conditions for the test plants. After about 3 weeks, the effect of the preparations was scored visually in comparison with untreated controls as percentages. For example, 100% activity=the plants have died, 0% activity=like control plants. Tables B1 to B15 below show the effects of selected compounds of the general formula (I) according to Tables I.1 to I.44 on various harmful plants and an application rate corresponding to 1280 g/ha or 320 g/ha, which were obtained by the experimental procedure mentioned above.

Row | SMILES | Effect (inhibition of PS II activity) [1] | also measured
1 | CCCc1nsc(N2C(=O)C(C)=C(Cl)C2O)n1 (centres unmarked) [I.4-4] | ++++ (inhibition≥90%) | 
2 | CC1=C(Cl)C(O)N(c2nc(C3CC3)ns2)C1=O (centres unmarked) [I.4-11, 4-chloro-3-methyl-5-hydroxy-1-(3-cyclopropyl-1,2,4-thiadiazol-5-yl)-1,5-dihydro-2H-pyrrol-2-one] |  | inhibition at 100 µM (stock) [1]: > 90%
3 | CC1=C(Cl)C(O)N(c2nc(C3(C)CC3)ns2)C1=O (centres unmarked) [I.4-335, 4-chloro-3-methyl-5-hydroxy-1-[3-(1-methylcycloprop-1-yl)-1,2,4-thiadiazol-5-yl]-1,5-dihydro-2H-pyrrol-2-one] |  | inhibition at 100 µM (stock) [1]: 50 to 70%
4 | COC(C)(C)c1nsc(N2C(=O)C(C)=C(Cl)C2O)n1 (centres unmarked) [I.4-370, 4-Chloro-3-methyl-5-hydroxy-1-[3-(2-methoxyprop-2-yl)-1,2,4-thiadiazol-5-yl]-1,5-dihydro-2H-pyrrol-2-one] |  | pest or weed control at 1280 g/ha [2]: 100%
5 | CCc1nsc(N2C(=O)C(C)=C(Br)C2O)n1 (centres unmarked) [I.6-3] | ++++ (inhibition≥90%) | 
6 | CC1=C(Br)C(O)N(c2nc(C3CC3)ns2)C1=O (centres unmarked) [I.6-11] | ++++ (inhibition≥90%) | 
7 | CCc1nsc(N2C(=O)N(C)CC2O)n1 (centres unmarked) [I.13-3] | +++ (90%≥inhibition≥70%) | 
8 | CN1CC(O)N(c2nc(C(C)(C)C)ns2)C1=O (centres unmarked) [I.13-288] | ++ (70%>inhibition≥50%) | 

More lines, main results first:

Row | Effect (inhibition of PS II activity) [1] | SMILES | also measured
9 | ++++ (inhibition≥90%) | COc1nsc(N2C(=O)C(C)=C(Cl)C2O)n1 (centres unmarked) [I.4-363] | 
10 | ++++ (inhibition≥90%) | CCc1nsc(N2C(=O)C(Br)=C(C)C2O)n1 (centres unmarked) [I.5-3] | 
11 | ++++ (inhibition≥90%) | CCCc1nsc(N2C(=O)C(Br)=C(C)C2O)n1 (centres unmarked) [I.5-4] | 
12 | ++++ (inhibition≥90%) | CCCc1nsc(N2C(=O)C(C)=C(Br)C2O)n1 (centres unmarked) [I.6-4] | 
13 | ++ (70%>inhibition≥50%) | O=C1C(Cl)=C(C2CCCCC2)C(O)N1c1nc(C2CC2)ns1 (centres unmarked) [I.9-11] | 
14 | +++ (90%≥inhibition≥70%) | CC(C)c1nsc(N2C(=O)C(C3CCCCC3)=C(Cl)C2O)n1 (centres unmarked) [I.10-5] | 
